Assay results from patent publication US12018327B2, “Methods and compositions relating to epoxide hydrolase genes” (The Regents of the University of California, priority 2018, dated 2024).

Columns and labels:
[1] = test system: PPARγ; assay: PPARγ-activated luciferase reporter assay in Raw264.7 cells; assay type: cell-based; details: 24 hours after treatment
Protocol: A modified PPARγ luciferase assay was performed as described in Ye et. al.. A PPRE-luciferase reporter plasmid, PPRE X3-TK-luc from Bruce Spiegelman (Plasmid #1015; Addgene, Cambridge, MA), and a PPARγ overexpression plasmid, pGST-PPARgamma from Bert Vogelstein (Plasmid #16549; Addgene, Cambridge, MA), were ordered from Addgene and purified with the Plasmid Plus Maxi Kit (Qiagen, Germantown, MD). Raw264.7 cells grown in R10 media (Roswell Park Memorial Institute (RPMI) media 1640 with 10% heat-inactivated Fetal Bovine SerμMand 2 mM L-glutamine and 100 U mL^−1 penicillin—streptomycin) were transfected with the PPRE-reporter, PPARγ, and Renilla luciferase plasmid DNA in a 1:20:40 ratio, using 50 ng/well of reporter plasmid DNA. Fugene HD Transfection reagent (Promega, Madison, WI) was combined with plasmid DNA in a 4:1 ratio, and the total volume was brought to 5 μL/well with RPMI. The transfection mixture was gently combined with dilute Raw264.7 cells and plated in black, clear-bottom, 96-well plates at a density of 50,000 cells per well. […] Twenty-four hours after treatment luciferase and Renilla luminescence were measured using the Dual-Glo Luciferase Assay kit (Promega, Madison, WI) on a Cytation 3 plate reader (BioTek Instruments, Winooski, VT).

[2] = test system: CRA-challenged mice; assay: Cockroach antigen (CRA) airway sensitization and challenge model; assay type: in vivo; details: for frequency of lung resident alveolar macrophages (CD11c+CD11b+F4/80+Siglec-F+): compared to vehicle treated
Protocol: Six-week-old female C57B6 mice were obtained from Jackson Laboratories (Sacramento, CA). Mice were treated on days 1, 2, 3, 14, and 21 with 30 mg kg^−1 12,13 DiHOME solubilized in 10% DMSO or vehicle (10% DMSO) by peritoneal injection. Three hours after injection, mice were challenged intra-tracheally with either PBS or CRA (20,000 PNU mL^−1; Greer, Lenoir, NC). Twenty-four hours after the final challenge mice were anesthetized, injected retro-orbitally with 100 μL CD45-APC (1:10), allowed to recover from anesthesia, and subsequently sacrificed. Lungs and plasma were collected. Serum was isolated, and serum IgE levels were measured using a Mouse IgE ELISA Max kit (Biolegend, San Diego, CA).
Lungs were sent to the Mouse Pathology Core at UCSF for H&E staining of paraffin-embedded tissue sections. Two bronchioles and two vessels from each stained tissue section were scored on a 0-4 scale with 0, representing structures with no inflammatory infiltrates; 1, representing few inflammatory cells; 2, representing a ring 1 cell-layer wide; 3, representing a ring 2-4 cells wide; and 4, representing a ring of inflammatory cells more than 4 cells wide. Each structure was scored by two blinded-individuals, and scores were averaged for each animal. Cell counts were determined for each structure. In brief, the ImageJ freehand selection tool was used to trace the perimeter of each bronchiole and vessel. The area extending beyond the perimeter of the vessel was cleared, and the color threshold of the image was adjusted using the default method with the following parameters: hue=0-255, saturation=0-255, brightness=130-255, threshold color=white, background=dark, color space=HSB. The image was converted to an 8-bit grey scale, and the threshold was adjusted using the B&W defaults and a range of 0-150. Counts were outlined and summarized using the analyze particles window (size=0-infinity, circularity=0.0-1.00).
Lung cell subsets were assessed by flow cytometry. Lung tissue was manually dissected, digested with 5 mg per sample collagenase (Sigma-Aldrich, St. Louis, MO), and passed through a […] filter to generate single cell suspensions. […] Gating strategy can be found in FIG. 5C. Regulatory T cells were identified as CD3+CD4+CD25+FoxP3+ cells. The human T cell gating strategy was also applied to mouse lungs. A representative flow plot can be found in FIG. 5D.
Lung tissue was preserved in RNAlater (Ambion, Foster City, CA). Preserved lung tissue was homogenized in Lysing Matrix E Tubes using a FastPrep 24 Homogenizer (MP Biomedicals, Santa Ana, CA) and extracted using an RNAeasy Mini Kit (Qiagen, Germantown, MD). qPCR was performed on lung tissue, as described above, to evaluate expression of IL1α, IL1β, and TNF relative to GAPDH.

[3] = Quantification of 12,13 DiHOME in lungs and plasma by LC-MS after peritoneal injection; assay type: in vivo, mice; details: 30 mg kg^−1 peritoneal, vs vehicle
Protocol: For quantification of 12,13 DiHOME in the lungs and plasma, six-week-old female C57B6 mice were purchased from Jackson Laboratories (Sacramento, CA) and treated with 30 mg kg^−1 12,13 DiHOME solubilized in 10% DMSO or vehicle (10% DMSO) by peritoneal injection. Three hours after a single injection mice were sacrificed, and lung tissue and plasma were collected and frozen immediately in liquid nitrogen. 12,13 DiHOME was extracted from tissue and plasma using an established solid phase extraction protocol. In brief, flash frozen tissue was massed and added to a Lysing Matrix E Tube (MP Biomedicals, Santa Ana, CA) containing 1 mL of methanol, 10 μL 0.2 mg mL^−1 BHT/EDTA, and 1.25 ng 12,13 DiHOME-D4 (Cayman Chemical, Ann Arbor, MI) then homogenized as described above. Tissue samples were spun for 10 minutes at 2125×g, and supernatant was transferred to a falcon tube containing 19 mL deionized water to generate a 5% methanol solution. Plasma samples were thawed on ice, and 10 μL 0.2 mg mL^−1 BHT/EDTA and 1.25 ng 12,13 DiHOME-D4 were added to 250 μL of thawed plasma. All samples were extracted using a Waters Oasis HLB Cartridges (60 mg of sorbent, […] particle size; Waters, Milford, MA) as previously described. […]

[4] = 30 mg kg^−1 peritoneal, CRA-challenged, vs vehicle treated PBS or CRA challenged
[5] = CRA challenged, vs vehicle treated PBS or CRA challenged
[6] = CRA-challenged, vs vehicle treated PBS or CRA challenged
[7] = H&E lung sections, 0-4 scale, vs vehicle treated PBS or CRA challenged

CCCCCC(O)C(O)C/C=C\CCCCCCCC(=O)O (stereo not shown) [12,13 DiHOME]
> 50 µM: concentrations that lead to PPARγ activation [1]
significantly increased: frequency of lung resident monocytes (F4-80+Ly6C+Ly6G-CD11b+) [2, 6] | frequency of lung resident neutrophils (Ly6G+CD11b+) [2, 6] | concentration of 12,13 DiHOME in the lungs ([3]; 3 hours post-delivery) | concentration of 12,13 DiHOME in the plasma ([3]; three hours after injection)
increased: expression of IL1β in lung [2, 4] | frequency of lung resident T cells (CD3+) [2, 4] | number of infiltrating cells surrounding the bronchioles [2, 4] | number of infiltrating cells surrounding the veins [2, 4] | serum IgE ([2]; 30 mg kg^−1 peritoneal, vs CRA-challenged and PBS-challenged animals) | expression of IL1α in lung [2, 5] | expression of TNF in lung [2, 5] | peribronchial inflammation score [2, 7] | perivascular inflammation score [2, 7] | frequency of lung resident alveolar macrophages (CD11c+CD11b+F4/80+Siglec-F+) ([2]; PBS challenged animals)
did not increase: frequency of live resident cells in the lungs [2, 6]
decreased: lung Treg frequency ([2]; 30 mg kg^−1 peritoneal, CRA-challenged, vs vehicle-treated CRA-challenged) | frequency of resident lung cells [2, 6] | frequency of lung resident alveolar macrophages (CD11c+CD11b+F4/80+Siglec-F+) ([2]; CRA challenged animals)
